Data as given in US20140024716A1, “Composition Comprising S-Allyl-L-Cysteine as Active Ingredient for Preventing or Treating Gastrointestinal Disorders” (PHARMAKING CO., LTD., priority 2009, published 2014).
Entries after “also recorded” stand apart in the source; their conditions may differ.

Tests used:
[1] = General observation (death, weight) of rats in gastric lesion tests; assay type: in vivo, Sprague-Dawley rats
Method: 7 to 8-week old male specific pathogen free (SPF) HsdKoat:Sprague-Dawley®™ SD®™rats (weight of 7-week old males was in the range of 208.44 to 227.39 g, and weight of 8-week old maleswas in the range of 223.85 to 245.03 g, purchased from Koatech, Co. Ltd., Gyunggido, Korea) were quarantined and acclimated in the Animal Lab for 7 days. The rats were bred at a temperature of 23 3° C., at a relative humidity of 55 15%, with light for 12 hours (light turned on at 08:00 and light turned off at 20:00) while air was ventilated 10 to 20 times/hr in the Animal Experiment Lab of Gyeonggi Bio-Center. Other environments for breeding which might influence the test for the entire test period were not considered for use. The rats were given free access to a solid laboratory diet (Harlan Co. Ltd., USA. Teklad certified global 18% protein rodent diet, 2918C) that was supplied by Folas International. […] The rats were given free access to tap water that was sterilized using a UV sterilizer and a micro filter with water bottles. […]

Helicobacter pylori = assay: Histological change of stomach caused by Helicobacter pylori (H&E staining); assay type: in vivo, C57BL/6 mice
Method: 8-week old male C57BL/6 mice were classified into 4 groups, i.e., a positive control group (to which Helicobacter pylori was administered; PC), a negative control group (to which saline was administered; NC), experimental group 1 (to which Helicobacter pylori and 200 mg/kg of SAC were administered; SAC1), and experimental group 2 (to which Helicobacter pylori and 400 mg/kg of SAC were administered; SAC2). Each group had 10 mice. White powdered SAC was diluted in tap water to concentrations of 20 mg/mL and 40 mg/mL and 10 μl/g (body weight) of the diluted SAC was orally administered to the mice of the SAC1 and SAC2 groups three times a week for 10 weeks. The mice were given free access to tap water for the entire test period. The Helicobacter pylori was collected with saline to a concentration of 1×10^9 CFU/mL, and 0.2 mL of the diluted Helicobacter pylori was orally administered to each mouse for 8 weeks from 2 weeks after SAC administration. The mice were fasted for 8 hours before the infection, and 0.15 mL of 0.2 M sodium bicarbonate (NaHCO3) was administered to each mouse 10 minutes before the administration of Helicobacter pylori in order to neutralize acidified stomach due to the fasting. The same amount of saline instead of the infectious substances was administered into the NC group. The mice of all groups were fed with a normal diet. After a 10-week test period, autopsies were performed on all mice, and samples of blood and internal organs were collected for tissue pathological analyses. […]
A stomach sample was fixed with 10% formalin and a paraffin block was formed. […] In addition, the number of eosinophils was checked from a region where the esophagus and stomach join and counted from three regions of the stomach, i.e., cardia, gastric pit, and gastric crypt of lamina propria. The number of mitotic figures was counted from two regions selected from the entire antrum from cardia to pylorus. Thus two samples were obtained from each animal and evaluated with a 400× magnification, and an average value of each group was calculated.

TNF-α = assay: Serum TNF-α in Helicobacter pylori-infected mice; assay type: in vivo, C57BL/6 mice; conditions: SAC1 and SAC2 groups (200 and 400 mg/kg SAC), p<0.09
Method: (§1) 8-week old male C57BL/6 mice were classified into 4 groups, i.e., a positive control group (to which Helicobacter pylori was administered; PC), a negative control group (to which saline was administered; NC), experimental group 1 (to which Helicobacter pylori and 200 mg/kg of SAC were administered; SAC1), and experimental group 2 (to which Helicobacter pylori and 400 mg/kg of SAC were administered; SAC2). Each group had 10 mice. White powdered SAC was diluted in tap water to concentrations of 20 mg/mL and 40 mg/mL and 10 μl/g (body weight) of the diluted SAC was orally administered to the mice of the SAC1 and SAC2 groups three times a week for 10 weeks. The mice were given free access to tap water for the entire test period. The Helicobacter pylori was collected with saline to a concentration of 1×10^9 CFU/mL, and 0.2 mL of the diluted Helicobacter pylori was orally administered to each mouse for 8 weeks from 2 weeks after SAC administration. […]
In order to observe the effect of SAC on an inflammation factor of TNF-α in serum, a commercially available mouse TNF-α antibody analysis kit Microplate (R&D systems Inc., USA) was used and concentrations of TNF-α in serum of mice were measured according to the manuals of the kit.

H. pylori ATCC 43504 = assay: Serum anti-H. pylori IgG (ELISA) in Helicobacter pylori-infected mice; assay type: in vivo, C57BL/6 mice
Method: S-allyl-L-Cysteine (SAC) was purchased from TCI Chemical Co. (Tokyo, Japan). Helicobacter pylori was American Type Culture Collection (ATCC) 43504 (cagA+, vacA s1-ml type) and cultured in a Mueller Hinton-Agar broth at 37° C. for 48 hours, under 5% CO2 microaerophilic conditions with a concentration of 1×10^9 CFU/ml.
as §1, with “period.” for “period. The Helicobacter pylori was collected with saline to a concentration of 1×10^9 CFU/mL, and 0.2 mL of the diluted Helicobacter pylori was orally administered to each mouse for 8 weeks from 2 weeks after SAC administration.”
Enzyme-linked immunosorbent assay (ELISA) was used in order to identify the effect of SAC on serum anti-Helicobacter pylori antibody-formation capability. […] 100 μl of 0.2 M sulfuric acid was added thereto to terminate the reaction and absorbance was measured at 450 nm.

C=CCSC[C@H](N)C(=O)O [SAC, S-allyl-L-cysteine]
death and other changes ([1]; 100, 200, 400 mg/kg SAC oral single dose, rats): No animals died and no other changes were observed
significant weight change with respect to administration ([1]; 100, 200, 400 mg/kg SAC oral, entire test period): not observed
number of eosinophils in stomach versus PC group (Helicobacter pylori; SAC1 and SAC2 groups (200 and 400 mg/kg SAC)): significantly reduced; also recorded: less than that of the PC group
number of eosinophils in stomach versus PC group (Helicobacter pylori; SAC1 group (200 mg/kg SAC), p<0.05): significantly less than that of the PC group
number of mitotic figures (Helicobacter pylori; SAC2 group (400 mg/kg SAC)): slightly reduced
serum TNF-α versus PC group (TNF-α): reduced; also recorded: less than that of the PC group
antibody titer of anti-H. pylori IgG in serum, SAC2 versus SAC1 group (H. pylori ATCC 43504; 400 mg/kg versus 200 mg/kg SAC): significantly less than that in the SAC1 group
antibody titer of anti-H. pylori IgG in serum versus PC group (H. pylori ATCC 43504; SAC1 and SAC2 groups (200 and 400 mg/kg SAC oral, 10 weeks)): significantly less; also recorded: less than that in the PC group
